Measured values as given in PubChem BioAssay AID2060502 (Molecular Pharmacology Branch, DTP, NCI, 2025).

Tested on: 885724-159-R-J1-PDC complex spheroid viability
Assay: Anticancer human tumor 885724-159-R-J1-PDC patient-derived pancreatic adenocarcinoma cell line growth inhibition [GQUAD]
Conditions: for IC50: curve of first compound; for viability, T/C: stronger effect = lower value
Description: DNA G-quadruplex Stabilizer Agents in Combinations in Complex Spheroids
A high-throughput screen of multi-cell type tumor spheroids was designed to identify active combinations of DNA G-quadruplex stabilizer agents and targeted small molecules. Complex spheroids include a stromal component modeled by human endothelial cells (HUVEC) and fibroblasts modeled by human mesenchymal stem cells (MSCs). The concentration ranges selected for each drug and investigational agent were based upon clinically achievable concentrations if the clinical Cmax of the agent was known.
Compounds. The drugs and investigational agents: pidnarulex (CX-5461; NSC782164), APTO-253 (NSC789042), BRACO-19 (NSC847499), peposertib (NSC802822), ceralasertib (NSC780249), elimusertib (NSC800525), camonsertib (NSC841442), AZD-1390 (NSC803789), olaparib (NSC753686), talazoparib (NSC767125), ART-558 (NSC835418), sotorasib (NSC818433), MRTX-1133 (NSC836407), SN-38 (NSC673596), topotecan (NSC609699), etoposide (NSC141540), doxorubicin (NSC123127), gemcitabine (NSC613327), 5-fluorouracil (NSC19893), paclitaxel (NSC125973), vemurafenib (NSC761431), panobinostat (NSC761190), R-306465 (JNJ-16241199; NSC773264), adavosertib (NSC754352), TP-3654 (NSC805149), carboplatin (NSC241240), KSQ-4279 (NSC840948), and staurosporine (NSC755774) were obtained from the National Cancer Institute (NCI) Developmental Therapeutics Program Chemical Repository (34). The FDA-approved anticancer drug set is available from the NCI Developmental Therapeutics Program. […] The stock solutions were prepared in dimethyl sulfoxide (DMSO, Sigma-Aldrich, St. Louis, MO, cat. D2650) at 800-fold the tested concentration and stored at -70 degrees C prior to their use. All drugs and investigational agents were tested over a range starting from a high concentration at or near the clinical Cmax and decreasing in half-log increments. If the clinical Cmax for an agent had not been determined, the highest concentration tested was 10 microM.
2.3 Cell Culture. All cells were maintained in an incubator at 37 degrees C and 5% CO2 with 95% humidity. The PDC lines were cultured according to standard operating procedures established by the NCI PDMR. All PDCs were thawed and cultured in Matrigel-coated flasks prepared with a working solution of 1X Ham's F-12 nutrient mix, without supplementation (Invitrogen, cat. 11765054), 100 U/mL penicillin-streptomycin (Invitrogen, cat. 15140122), and 2.5% Matrigel (Corning Inc., cat. 354248) for the first three passages. The 857933-349-R-J2-PDC line was cultured in 6C/Colon 1B media, which includes advanced DMEM/F-12 (Thermo Fisher Scientific, cat. 12634028), 10 mM HEPES (Thermo Fisher Scientific, cat. 15630080), 1X GlutaMAX supplement (Thermo Fisher Scientific, cat. 35050061), 0.1 mg/mL primocin (InvivoGen, cat. ant-pm-2), 10% defined fetal bovine serum, heat inactivated (HyClone Laboratories Inc., cat. SH30070.03HI), 50% L-WRN conditioned media (ATCC, cat. CRL-3276), 1.25 mM N-Acetyl-L-cysteine (Sigma-Aldrich, cat. A9165), 10 mM nicotinamide (Sigma-Aldrich, cat. N0636), 1X B-27 supplement (Thermo Fisher Scientific, cat. 17504044), 1X N-2 supplement (Thermo Fisher Scientific, cat. 17502048), 10 microM Y-27632 dihydrochloride (Tocris Bioscience, cat. 1254), and 50 ng/mL human EGF recombinant protein (Thermo Fisher Scientific, cat. PHG0311). The 485176-168-R4-J1-PDC line was cultured in Panc media, which includes all 6C/Colon 1B media components plus 100 ng/mL human FGF-10 (Thermo Fisher Scientific, cat. 100-26), 500 nM SB-431542 (Selleckchem, cat. S1067), and gastrin (Tocris, cat. 3006).
[…]
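Also: spheroids exposed to agents for seven days before readout.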
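For viability, T/C in this document: percent of vehicle control viability where 100% = DMSO wells.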

## CC1COCCN1c1cc(C2(O)CC3CCC(C2)O3)c2cnn(-c3ccn[nH]3)c2n1 (configuration not stated) + CN(C)c1ccc(Nc2c3ccc(NC(=O)CCN4CCCC4)cc3nc3cc(NC(=O)CCN4CCCC4)ccc23)cc1
Second compound 0.0316 µM
  IC50: 1480 nM
Second compound 0.1 µM
  IC50: 1400 nM
Second compound 0.316 µM
  IC50: 495 nM
Second compound 1 µM
  IC50: 880 nM
Second compound 3.16 µM
  IC50: 286 nM
Second compound 10 µM
  IC50: 449 nM
Second compound 0.0316 µM, first compound 0.0316 µM
  viability, T/C: 89%
Second compound 0.0316 µM, first compound 0.1 µM
  viability, T/C: 74%
Second compound 0.0316 µM, first compound 0.316 µM
  viability, T/C: 69.3%
Second compound 0.0316 µM, first compound 1 µM
  viability, T/C: 53.1%
Second compound 0.0316 µM, first compound 3.16 µM
  viability, T/C: 41.6%
Second compound 0.0316 µM, first compound 10 µM
  viability, T/C: 33.9%
Second compound 0.1 µM, first compound 0.0316 µM
  viability, T/C: 95.4%
Second compound 0.1 µM, first compound 0.1 µM
  viability, T/C: 83.8%
Second compound 0.1 µM, first compound 0.316 µM
  viability, T/C: 61.5%
Second compound 0.1 µM, first compound 1 µM
  viability, T/C: 55.8%
Second compound 0.1 µM, first compound 3.16 µM
  viability, T/C: 42.8%
Second compound 0.1 µM, first compound 10 µM
  viability, T/C: 36.8%
Second compound 0.316 µM, first compound 0.0316 µM
  viability, T/C: 80.9%
Second compound 0.316 µM, first compound 0.1 µM
  viability, T/C: 83.5%
Second compound 0.316 µM, first compound 0.316 µM
  viability, T/C: 55.4%
Second compound 0.316 µM, first compound 1 µM
  viability, T/C: 46.4%
Second compound 0.316 µM, first compound 3.16 µM
  viability, T/C: 44.9%
Second compound 0.316 µM, first compound 10 µM
  viability, T/C: 33%
Second compound 1 µM, first compound 0.0316 µM
  viability, T/C: 74.9%
Second compound 1 µM, first compound 0.1 µM
  viability, T/C: 62.5%
Second compound 1 µM, first compound 0.316 µM
  viability, T/C: 65.1%
Second compound 1 µM, first compound 1 µM
  viability, T/C: 45.6%
Second compound 1 µM, first compound 3.16 µM
  viability, T/C: 39.9%
Second compound 1 µM, first compound 10 µM
  viability, T/C: 32.6%
Second compound 3.16 µM, first compound 0.0316 µM
  viability, T/C: 80.9%
Second compound 3.16 µM, first compound 0.1 µM
  viability, T/C: 65.4%
Second compound 3.16 µM, first compound 0.316 µM
  viability, T/C: 47.6%
Second compound 3.16 µM, first compound 1 µM
  viability, T/C: 38.4%
Second compound 3.16 µM, first compound 3.16 µM
  viability, T/C: 33.4%
Second compound 3.16 µM, first compound 10 µM
  viability, T/C: 29.5%
Second compound 10 µM, first compound 0.0316 µM
  viability, T/C: 70.2%
Second compound 10 µM, first compound 0.1 µM
  viability, T/C: 66.7%
Second compound 10 µM, first compound 0.316 µM
  viability, T/C: 49.6%
Second compound 10 µM, first compound 1 µM
  viability, T/C: 42.4%
Second compound 10 µM, first compound 3.16 µM
  viability, T/C: 35.6%
Second compound 10 µM, first compound 10 µM
  viability, T/C: 23.3%
